Measured values as given in patent US20250163104A1, “MACROCYCLIC IMMUNOMODULATORS” (priority 2021, published 2025).
Where a SMILES comes first, the peptide text is derived from it. Bridges are numbered along the chain shown (N, C = ends). [ ]: non-standard residue; d: D form. The star is where a group is joined. ξ: configuration not given here. Phe(4-COOH) = N[C@@H](Cc1ccc(C(=O)O)cc1)C(=O)O; Bip = N[C@@H](Cc1ccc(-c2ccccc2)cc1)C(=O)O; Phe(3-CN) = N#Cc1cccc(C[C@H](N)C(=O)O)c1; Phe(3-Me) = Cc1cccc(C[C@H](N)C(=O)O)c1; 4Pal = N[C@@H](Cc1ccncc1)C(=O)O; 2Thi = N[C@@H](Cc1cccs1)C(=O)O; Cha = N[C@@H](CC1CCCCC1)C(=O)O; Cit = NC(=O)NCCC[C@H](N)C(=O)O; dCha = N[C@H](CC1CCCCC1)C(=O)O; Thr(3ξ) = CC(O)[C@H](N)C(=O)O; dNle = CCCC[C@@H](N)C(=O)O; Carboxymethyl = O=C(O)C*; NMeA = CN[C@@H](C)C(=O)O; Orn = NCCC[C@H](N)C(=O)O; Dab = NCC[C@H](N)C(=O)O; Dap = NC[C@H](N)C(=O)O

Biological target: T1, human PD-1 / PD-L1-Ig binding on Jurkat cell line over-expressing human PD-1 (Jurkat-PD-1) (Homo sapiens, UniProt Q15116)
T1 construct: expressed in transfected cells; host or cells: Jurkat
Assay: Jurkat-PD-1 Cell Binding High-Content Screening Assay (CBA)
Assay type: cell-based
Details: Jurkat-PD-1 cells, PE-labeled PD-L1-Ig 20 nM final; read-out: Jurkat HPD1_PDL1 IC50
In short: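 Cell-bound PE-labeled PD-L1-Ig (20 nM final, 1 h) measured by high-content imaging after fixation and Hoechst 33342 counterstain. Compound was applied first for 2 h at 37° C. to Jurkat cells over-expressing human PD-1 in DMEM with 10% FCS.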

T1 sequence (Q15116 25-288): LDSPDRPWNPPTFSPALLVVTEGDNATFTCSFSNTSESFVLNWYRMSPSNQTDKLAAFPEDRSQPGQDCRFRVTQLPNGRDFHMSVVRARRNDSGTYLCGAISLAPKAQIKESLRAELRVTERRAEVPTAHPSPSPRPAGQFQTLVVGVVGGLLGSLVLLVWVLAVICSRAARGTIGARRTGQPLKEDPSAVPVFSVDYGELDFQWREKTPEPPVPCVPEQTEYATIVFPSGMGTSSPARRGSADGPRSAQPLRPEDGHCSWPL

| Structure (SMILES) | IC50 [nM] |
| --- | --- |
| CC(C)C[C@H]1NC(=O)[C@H](CCCN)NC(=O)[C@H](CCC(=O)O)NC(=O)[C@H](Cc2ccc(-c3ccccc3)cc2)NC(=O)[C@H](C(C)C)NC(=O)[C@H](Cc2c[nH]c3ccccc23)NC(=O)[C@H](CC(=O)O)NC(=O)[C@H](Cc2ccc(-c3cccc(C(=O)O)c3)cc2)NC(=O)[C@H](Cc2ccncc2)NC(=O)CSC[C@@H](C(=O)N[C@@H](C)C(N)=O)NC(=O)[C@H]([C@@H](C)O)NC(=O)[C@H](C(C)C)NC(=O)[C@H](CC2CCCCC2)NC(=O)[C@H](CCN)NC1=O [Compound 2164] | 8 |
| Cc1cccc(C[C@@H]2NC(=O)[C@H](CC(=O)O)NC(=O)[C@H](Cc3ccc(C(=O)O)cc3)NC(=O)[C@H](Cc3ccncc3)NC(=O)CSC[C@@H](C(=O)N[C@@H](CO)C(N)=O)NC(=O)[C@H]([C@@H](C)O)NC(=O)[C@H](C(C)C)NC(=O)[C@H](CC3CCCCC3)NC(=O)[C@H](CCN)NC(=O)[C@@H](CC(C)C)NC(=O)[C@H](CCCN)NC(=O)[C@H](Cc3ccc(OCC(=O)O)cc3)NC(=O)[C@H](Cc3ccc(-c4ccccc4)cc3)NC(=O)[C@H](Cc3ccc(OCC(=O)O)cc3)NC2=O)c1 [Compound 2310] ({CH2CO}-[4Pal][Phe(4-COOH)]D[Phe(3-Me)]Y(Carboxymethyl)[Bip]Y(Carboxymethyl)[Orn][dL][Dab][Cha]VTCS-NH2; thioether N-14) | 7.6 |
| CC(C)C[C@@H]1NC(=O)[C@H](CCN)NC(=O)[C@@H](CC(C)C)NC(=O)[C@H](CCCN)NC(=O)[C@H](C(C)C)NC(=O)[C@H](Cc2ccc(-c3ccccc3)cc2)NC(=O)[C@H](C(C)C)NC(=O)[C@H](Cc2c[nH]c3ccccc23)NC(=O)[C@H](CC(=O)O)NC(=O)[C@H](Cc2ccc(O)cc2)NC(=O)[C@H](CC(N)=O)NC(=O)CSC[C@@H](C(=O)N[C@@H](C)C(N)=O)NC(=O)[C@H]([C@@H](C)O)NC(=O)[C@H](C(C)C)NC1=O [Compound 1015] ({CH2CO}-NYDWV[Bip]V[Orn][dL][Dab]LVTCA-NH2; thioether N-14) | 23.8 |
| CC(C)C[C@H]1NC(=O)[C@H](CCCN)NC(=O)[C@H](CCC(=O)O)NC(=O)[C@H](Cc2ccc(-c3ccccc3)cc2)NC(=O)[C@H](C(C)C)NC(=O)[C@H](Cc2c[nH]c3ccccc23)NC(=O)[C@H](CC(=O)O)NC(=O)[C@H](Cc2ccc(OCC(=O)O)cc2)NC(=O)[C@H](CN)NC(=O)CSC[C@@H](C(=O)N[C@@H](C)C(N)=O)NC(=O)[C@H]([C@@H](C)O)NC(=O)[C@H](C(C)C)NC(=O)[C@H](Cc2cccc(C#N)c2)NC(=O)[C@H](CCN)NC1=O [Compound 1507] ({CH2CO}-[Dap]Y(Carboxymethyl)DWV[Bip]E[Orn][dL][Dab][Phe(3-CN)]VTCA-NH2; thioether N-14) | 154 |
| Cc1cccc(C[C@@H]2NC(=O)[C@H](CC(=O)O)NC(=O)[C@H](Cc3ccc(OCC(=O)O)cc3)NC(=O)[C@H](CN)NC(=O)CSC[C@@H](C(=O)N[C@@H](CCCN)C(N)=O)NC(=O)[C@H]([C@@H](C)O)NC(=O)[C@H](C(C)C)NC(=O)[C@H](CC3CCCCC3)NC(=O)[C@H](CCN)NC(=O)[C@@H](CC(C)C)NC(=O)[C@H](CCCN)NC(=O)[C@H](CCCNC(N)=O)NC(=O)[C@H](Cc3ccc(-c4ccccc4)cc3)NC(=O)[C@H](C(C)C)NC2=O)c1 [Compound 2011] ({CH2CO}-[Dap]Y(Carboxymethyl)D[Phe(3-Me)]V[Bip][Cit][Orn][dL][Dab][Cha]VTC[Orn]-NH2; thioether N-14) | 11.9 |
| CC(C)[C@@H]1NC(=O)[C@H](Cc2c[nH]c3ccccc23)NC(=O)[C@H](CC(=O)O)NC(=O)[C@H](Cc2ccc(O)cc2)NC(=O)[C@H](CC(N)=O)NC(=O)CSC[C@@H](C(=O)N[C@@H](C)C(N)=O)NC(=O)[C@H]([C@@H](C)O)NC(=O)[C@H](C(C)C)NC(=O)[C@H](CC2CCCCC2)NC(=O)[C@H](CCN)NC(=O)[C@@H](CC2CCCCC2)NC(=O)[C@H](CCCN)NC(=O)[C@H](CCC(=O)O)NC(=O)[C@H](Cc2ccc(-c3ccccc3)cc2)NC1=O [Compound 1442] ({CH2CO}-NYDWV[Bip]E[Orn][dCha][Dab][Cha]VTCA-NH2; thioether N-14) | 15.9 |
| CC(C)C[C@H]1NC(=O)[C@H](CCCN)NC(=O)[C@H](C(C)C)NC(=O)[C@H](Cc2ccc(-c3ccccc3)cc2)NC(=O)[C@H](C(C)C)NC(=O)[C@H](Cc2c[nH]c3ccccc23)NC(=O)[C@H](CC(=O)O)NC(=O)[C@H](Cc2ccc(OCC(=O)O)cc2)NC(=O)[C@H](CN)NC(=O)CSC[C@@H](C(=O)N[C@@H](C)C(N)=O)NC(=O)[C@H]([C@@H](C)O)NC(=O)[C@H](C(C)C)NC(=O)[C@H](CC2CCCCC2)NC(=O)[C@H](CCN)NC1=O [Compound 1312] ({CH2CO}-[Dap]Y(Carboxymethyl)DWV[Bip]V[Orn][dL][Dab][Cha]VTCA-NH2; thioether N-14) | 4 |
| CC(C)C[C@H]1NC(=O)[C@H](CCCN)NC(=O)[C@H](CCC(=O)O)NC(=O)[C@H](Cc2ccc(-c3ccccc3)cc2)NC(=O)[C@H](C(C)C)NC(=O)[C@H](Cc2c[nH]c3ccccc23)NC(=O)[C@H](CC(=O)O)NC(=O)[C@H](Cc2cccs2)NC(=O)[C@H](CC(N)=O)NC(=O)CSC[C@@H](C(=O)N[C@@H](C)C(N)=O)NC(=O)[C@H]([C@@H](C)O)NC(=O)[C@H](C(C)C)NC(=O)[C@H](CC2CCCCC2)NC(=O)[C@H](CCN)NC1=O [Compound 2190] ({CH2CO}-N[2Thi]DWV[Bip]E[Orn][dL][Dab][Cha]VTCA-NH2; thioether N-14) | 15.3 |
| CC(C)C[C@H]1NC(=O)[C@H](CCCN)NC(=O)[C@H](C(C)C)NC(=O)[C@H](Cc2ccc(-c3ccccc3)cc2)NC(=O)[C@H](C(C)C)NC(=O)[C@H](Cc2c[nH]c3ccccc23)NC(=O)[C@H](CC(=O)O)NC(=O)[C@H](Cc2ccc(OCC(=O)O)cc2)NC(=O)[C@H](C(C)O)NC(=O)CSC[C@@H](C(=O)N(C)[C@@H](C)C(N)=O)NC(=O)[C@H](CO)NC(=O)[C@H](C(C)C)NC(=O)[C@H](CC2CCCCC2)NC(=O)[C@H](CCN)NC1=O (stereo partly drawn) [Compound 2570] ({CH2CO}-[Thr(3ξ)]Y(Carboxymethyl)DWV[Bip]V[Orn][dL][Dab][Cha]VSC[NMeA]-NH2; thioether N-14) | 15.2 |
| CC(C)C[C@H]1NC(=O)[C@H](CCCN)NC(=O)[C@H](C(C)C)NC(=O)[C@H](Cc2ccc(-c3ccccc3)cc2)NC(=O)[C@H](C(C)C)NC(=O)[C@H](Cc2c[nH]c3ccccc23)NC(=O)[C@H](CC(=O)O)NC(=O)[C@H](Cc2ccc(C(=O)O)cc2)NC(=O)[C@H](Cc2ccc(OCC(=O)O)cc2)NC(=O)CSC[C@@H](C(=O)N[C@@H](C)C(N)=O)NC(=O)[C@H]([C@@H](C)O)NC(=O)[C@H](C(C)C)NC(=O)[C@H](Cc2cccc(F)c2)NC(=O)[C@H](CCN)NC1=O [Compound 1673] | 13.6 |
| CCCC[C@H]1NC(=O)[C@H](CCCN)NC(=O)[C@H](CCC(=O)O)NC(=O)[C@H](Cc2ccc(-c3ccccc3)cc2)NC(=O)[C@H](C(C)C)NC(=O)[C@H](Cc2c[nH]c3ccccc23)NC(=O)[C@H](CC(=O)O)NC(=O)[C@H](Cc2ccncc2)NC(=O)[C@H](CN)NC(=O)CSC[C@@H](C(=O)N[C@@H](C)C(N)=O)NC(=O)[C@H]([C@@H](C)O)NC(=O)[C@H](C(C)C)NC(=O)[C@H](CC2CCCCC2)NC(=O)[C@H](CCN)NC1=O [Compound 1452] ({CH2CO}-[Dap][4Pal]DWV[Bip]E[Orn][dNle][Dab][Cha]VTCA-NH2; thioether N-14) | 25.2 |
| Cc1cccc(C[C@@H]2NC(=O)[C@H](CC(=O)O)NC(=O)[C@H](Cc3ccc(OCC(=O)O)cc3)NC(=O)[C@H](CCN)NC(=O)CSC[C@@H](C(=O)N[C@@H](CCN)C(N)=O)NC(=O)[C@H](Cc3cnc[nH]3)NC(=O)[C@H](C(C)C)NC(=O)[C@H](CC3CCCCC3)NC(=O)[C@H](CCN)NC(=O)[C@@H](CC(C)C)NC(=O)[C@H](CCCN)NC(=O)[C@H](Cc3ccc(OCC(=O)O)cc3)NC(=O)[C@H](Cc3ccc(-c4ccccc4)cc3)NC(=O)[C@H](C(C)C)NC2=O)c1 [Compound 2644] ({CH2CO}-[Dab]Y(Carboxymethyl)D[Phe(3-Me)]V[Bip]Y(Carboxymethyl)[Orn][dL][Dab][Cha]VHC[Dab]-NH2; thioether N-14) | 13.6 |
| CC(C)C[C@H]1NC(=O)[C@H](CCCN)NC(=O)[C@H](CCC(=O)O)NC(=O)[C@H](Cc2ccc(-c3ccccc3)cc2)NC(=O)[C@H](C(C)C)NC(=O)[C@H](Cc2ccc(O)cc2)NC(=O)[C@H](CC(=O)O)NC(=O)[C@H](Cc2ccc(OCC(=O)O)cc2)NC(=O)[C@H](CN)NC(=O)CSC[C@@H](C(=O)N[C@@H](C)C(N)=O)NC(=O)[C@H]([C@@H](C)O)NC(=O)[C@H](C(C)C)NC(=O)[C@H](CC2CCCCC2)NC(=O)[C@H](CCN)NC1=O [Compound 2141] ({CH2CO}-[Dap]Y(Carboxymethyl)DYV[Bip]E[Orn][dL][Dab][Cha]VTCA-NH2; thioether N-14) | 26.1 |
| CC(C)[C@@H]1NC(=O)[C@H](Cc2c[nH]c3ccccc23)NC(=O)[C@H](CC(=O)O)NC(=O)[C@H](Cc2ccc(OCC(=O)O)cc2)NC(=O)[C@H](CN)NC(=O)CSC[C@@H](C(=O)N[C@@H](C)C(N)=O)NC(=O)[C@H]([C@@H](C)O)NC(=O)[C@H](C(C)C)NC(=O)[C@H](CC2CCCCC2)NC(=O)[C@H](CCN)NC(=O)[C@@H](CC2CCCCC2)NC(=O)[C@H](CCCN)NC(=O)[C@H](CCC(=O)O)NC(=O)[C@H](Cc2ccc(-c3ccccc3)cc2)NC1=O [Compound 1443] ({CH2CO}-[Dap]Y(Carboxymethyl)DWV[Bip]E[Orn][dCha][Dab][Cha]VTCA-NH2; thioether N-14) | 11.8 |
| CC(C)C[C@H]1NC(=O)[C@H](CCCN)NC(=O)[C@H](CCC(=O)O)NC(=O)[C@H](Cc2ccc(-c3ccccc3)cc2)NC(=O)[C@H](C(C)C)NC(=O)[C@H](Cc2ccc(Cl)c(Cl)c2)NC(=O)[C@H](CC(=O)O)NC(=O)[C@H](Cc2ccc(OCC(=O)O)cc2)NC(=O)[C@H](CN)NC(=O)CSC[C@@H](C(=O)N[C@@H](C)C(N)=O)NC(=O)[C@H]([C@@H](C)O)NC(=O)[C@H](C(C)C)NC(=O)[C@H](CC2CCCCC2)NC(=O)[C@H](CCN)NC1=O [Compound 2152] | 11.1 |
